These results are taken from patent US6326395A, “Antifungal activity of dicationic molecules” (priority 1999, dated 2001).

The test system of one test is C. albicans 102.96. Briefly: antifungal susceptibility testing (MIC, MFC), extended spectrum. The settings on record: Candida albicans, C. albicans 102.96, fluconazole-resistant. Format: cell-based, Candida albicans. An excerpt: (§1) Antifungal susceptibility testing for compounds set forth in Examples 1-20 is discussed hereinbelow. The fungi that were employed included two reference strains, C. neoformans var. neoformans H99 and C. albicans A39 and the following clinical isolates: (1) two strains of fluconazole-resistant C. neoformans var. neoformans (135.95 and 114.96); (2) two strains of C. neoformans var. gattii (119.95 and 114.95); (3) two strains of fluconazole-resistant C. albicans (102.96 and 103.96); and (4) one strain each of Torulopsis glabrata (142.91), Candida parapsilosis (111.96), Candida krusei (132.91), C. tropicalis (110.96), Candida lusitaniae (111.92), Fusarium solani (152.89), Aspergillus fumigatus (168.95), and Aspergillus flavus (112.96). Antifungal susceptibility testing was performed using an RPMI-1640 medium (Sigma Chemical Co., St. Louis, Mo.) with glutamine, without sodium bicarbonate, and buffered at pH 7.0 with 0.165 M morpholine-propanesulfonic acid (MOPS).
(§2) In vitro susceptibility testing in the form of Minimum Inhibitory Concentration (MIC) experiments were performed using the broth macrodilution method according to the recommendations of the National Committee for Clinical Laboratory Standards (see 1995 manual). The only difference compared to the standardized procedure was the choice of drug dilutions ranging from 100 to 0.09 μg/ml. Briefly, this procedure specifies an inoculum grown at 35° C. and adjusted to a concentration of 0.5-2.5×10^3 CFU/ml with an incubation of the test performed at 35° C. and reading at 48 hours for all yeasts except for C. neoformans which is interpreted at 72 hr.
(§3) Minimum Fungicidal Concentration (MFC) experiments were adapted from a method by McGinnis (McGinnis, M. R., (1980) "Susceptibility testing and bioassay procedure", p. 431, Academic Press, Inc., New York). Briefly, 10 μl aliquots from tubes with growth inhibition were plated onto Sabouraud agar plates. The lowest drug concentration that yielded three or fewer yeasts colonies was recorded as the MFC.
(§4) Antifungal susceptibility testing for compounds set forth in Examples 21-28 is discussed hereinbelow. The fungi that were employed included two quality control reference strains, C. neoformans var. neoformansH99 and C. albicans A39 and the following clinical isolates: (1) four strains of C. neoformans var. neoformans (167.95; 135.95; 114.96; and 133.95) of which three were fluconazole-resistant>64 μg/ml (135.95; 114.96; and 133.95); (2) two strains of C. neoformans var. gattii (119.95 and 114.95); (3) two strains of fluconazole-resistant>64 μg/ml C. albicans (102.96 and 103.96); and (4) one strain each of C. glabrata (142.91), Candida parapsilosis (111.96), Candida krusei (132.91), C. tropicalis (110.96), Candida lusitaniae (111.92), Fusarium solani (152.89), Aspergillus fumigatus (168.95), Rhizopus arrhizus (117.89), Paecilomyces lilacinus (137.90), and Aspergillus flavus (112.96). Antifungal susceptibility testing was performed using an RPMI-1640 medium (Sigma Chemical Co., St. Louis, Mo.) with glutamine, without sodium bicarbonate, and buffered at pH 7.0 with 0.165 M morpholinepropanesulfonic acid (MOPS).
(§5) Minimum Fungicidal Concentration (MFC) experiments were adapted from a method by McGinnis (McGinnis, M. R., (1980) "Susceptibility testing and bioassay procedure", p.431, Academic Press, Inc., New York). Briefly, 10 μl aliquots from tubes with growth inhibition were plated onto Sabouraud agar plates. The lowest drug concentration that yielded 3 or fewer yeasts colonies was recorded as the MFC. Several drugs were also rescreened with a subculture of 100 μl aliquots from tubes with no growth and there was no change in MFC.

The subject of the next test is C. albicans 103.96. The description is as above. As to conditions: Candida albicans, C. albicans 103.96, fluconazole-resistant. Type of test: cell-based, Candida albicans.
Excerpt: as §1, §2, §3, §4, §5

Where a name gives a salt, the structure may show the parent alone.

One may read the MFC as the smallest concentration meeting the test's criterion for killing the fungus. As for `CC(C)NC(=N)c1ccc2nc(-c3ccc4c(c3)Cc3cc(-c5nc6ccc(C(=N)NC(C)C)cc6[nH]5)ccc3-4)[nH]c2c1` [Compound 57, 2,7-Bis[2-(5-N-isopropylamidino)benzimidazoyl]fluorene hydrochloride], the MFC in the test on C. albicans 102.96 and against C. albicans 103.96 was 12.5 µg/mL each time. Also, the MIC in the test with C. albicans 102.96 (48 hours, read-out: MIC80) came to 1.56 µg/mL; with C. albicans 103.96 (48 hours, read-out: MIC80) it was 1.56 µg/mL.
